Laboratory results reported in ChEMBL document CHEMBL1144628, “6-Hydrazinopurine 2'-methyl ribonucleosides and their 5'-monophosphate prodrugs as potent hepatitis C virus inhibitors” (Bioorg Med Chem Lett, 2007).

Legend:
Hepatitis C virus = test: Antiviral activity against HCV by replicon assay; type: functional, organism-based, Hepacivirus hominis
Plasma = test: Stability in human plasma; type: ADME, cell-free
[1] = Stability in human simulated gastric fluid; type: ADME, Stomach; conditions: simulated gi fluid
[2] = Stability in human simulated intestinal fluid at 1 mg/mL after 30 mins; type: ADME; conditions: read-out: Stability
[3] = Stability in human simulated intestinal fluid at 1 mg/mL after 60 mins; type: ADME; conditions: read-out: Stability
[4] = Stability in human simulated intestinal fluid at 1 mg/mL after 2 hrs; type: ADME; conditions: simulated gi fluid

Row | EC50 (Hepatitis C virus) [nM] | Stability (Plasma) | Stability [1] | remaining at 0.5 h, 1 mg/mL [2] [%] | remaining at 1 h, 1 mg/mL [3] [%] | Stability [4] | Structure (SMILES)
1 | 270 | Stable | Stable | 61 | 37 | – | CC(C)OC(=O)C(C)NP(=O)(OC[C@H]1O[C@@H](n2cnc3c(N(C)NS(C)(=O)=O)nc(N)nc32)[C@](C)(O)[C@@H]1O)Oc1ccc(Cl)cc1 (stereo not given in full)
2 | 39000 | Stable | Stable | 0 | 0 | – | COC(=O)CNP(=O)(OC[C@H]1O[C@@H](n2cnc3c(N(C)NS(C)(=O)=O)ncnc32)[C@](C)(O)[C@@H]1O)Oc1ccc(Cl)cc1 (stereo not given in full)
3 | 1400 | Stable | Stable | 100 | 100 | Stable | COC(=O)C(C)(C)NP(=O)(OC[C@H]1O[C@@H](n2cnc3c(N(C)NS(C)(=O)=O)ncnc32)[C@](C)(O)[C@@H]1O)Oc1ccc(Cl)cc1 (stereo not given in full)
4 | 260 | Stable | Stable | 100 | 100 | Stable | COC(=O)C(C)(C)NP(=O)(OC[C@H]1O[C@@H](n2cnc3c(N(C)NS(C)(=O)=O)nc(N)nc32)[C@](C)(O)[C@@H]1O)Oc1ccc(Cl)cc1 (stereo not given in full)
5 | 8900 | Stable | Stable | 0 | 0 | – | COC(=O)CNP(=O)(OC[C@H]1O[C@@H](n2cnc3c(N(C)NS(C)(=O)=O)nc(N)nc32)[C@](C)(O)[C@@H]1O)Oc1ccc(Cl)cc1 (stereo not given in full)
6 | 110 | Stable | Stable | 0 | 0 | – | CC(NP(=O)(OC[C@H]1O[C@@H](n2cnc3c(N(C)NS(C)(=O)=O)nc(N)nc32)[C@](C)(O)[C@@H]1O)Oc1ccc(Cl)cc1)C(=O)OCc1ccccc1 (stereo not given in full)
7 | 1200 | – | – | – | – | – | COC(=O)C(C)NP(=O)(OC[C@H]1O[C@@H](n2cnc3c(N(C)NS(C)(=O)=O)nc(N)nc32)[C@](C)(O)[C@@H]1O)Oc1ccccc1 (stereo not given in full)
8 | 22000 | Stable | Stable | 0 | 0 | – | COC(=O)CNP(=O)(OC[C@H]1O[C@@H](n2cnc3c(N(C)NS(C)(=O)=O)nc(N)nc32)[C@](C)(O)[C@@H]1O)Oc1ccccc1 (stereo not given in full)
9 | 800 | – | – | – | – | – | COC(=O)C(C)NP(=O)(OC[C@H]1O[C@@H](n2cnc3c(N(C)NS(C)(=O)=O)nc(N)nc32)[C@](C)(O)[C@@H]1O)Oc1ccc(Cl)cc1 (stereo not given in full)
10 | 2600 | – | – | – | – | – | COC(=O)C(C)NP(=O)(OC[C@H]1O[C@@H](n2cnc3c(N(C)NS(C)(=O)=O)ncnc32)[C@](C)(O)[C@@H]1O)Oc1ccc(Cl)cc1 (stereo not given in full)

Second part, the molecule before the results:

Row | Structure (SMILES) | EC50 (Hepatitis C virus) [nM] | Stability (Plasma) | Stability [1] | remaining at 0.5 h, 1 mg/mL [2] [%] | remaining at 1 h, 1 mg/mL [3] [%] | Stability [4]
11 | CN(NS(C)(=O)=O)c1ncnc2c1ncn2[C@@H]1O[C@H](COP(=O)(OCCSC(=O)C(C)(C)C)OCCSC(=O)C(C)(C)C)[C@@H](O)[C@@]1(C)O | 60 | – | – | – | – | –
12 | CN(NS(C)(=O)=O)c1nc(N)nc2c1ncn2[C@@H]1O[C@H](CO)[C@@H](O)[C@@]1(C)O | 92000 | – | – | – | – | –
13 | CC(NP(=O)(OC[C@H]1O[C@@H](n2cnc3c(N(C)NS(C)(=O)=O)ncnc32)[C@](C)(O)[C@@H]1O)Oc1ccc(Cl)cc1)C(=O)OCc1ccccc1 (stereo not given in full) | 680 | Stable | Stable | 0 | 0 | –
14 | CC(NP(=O)(OC[C@H]1O[C@@H](n2cnc3c(N(C)NS(C)(=O)=O)nc(N)nc32)[C@](C)(O)[C@@H]1O)Oc1ccccc1)C(=O)OCc1ccccc1 (stereo not given in full) | 2200 | Stable | Stable | 0 | 0 | –
15 | CN(NS(C)(=O)=O)c1nc(N)nc2c1ncn2[C@@H]1O[C@H](COP(=O)(OCCSC(=O)C(C)(C)C)OCCSC(=O)C(C)(C)C)[C@@H](O)[C@@]1(C)O | 24 | – | – | – | – | –
16 | CC(NP(=O)(OC[C@H]1O[C@@H](n2cnc3c(N(C)NS(C)(=O)=O)ncnc32)[C@](C)(O)[C@@H]1O)Oc1ccccc1)C(=O)OCc1ccccc1 (stereo not given in full) | 2900 | Stable | Stable | 0 | 0 | –
17 | COC(=O)C(C)NP(=O)(OC[C@H]1O[C@@H](n2cnc3c(N(C)NS(C)(=O)=O)ncnc32)[C@](C)(O)[C@@H]1O)Oc1ccccc1 (stereo not given in full) | 26000 | – | – | – | – | –
18 | CN(NS(C)(=O)=O)c1ncnc2c1ncn2[C@@H]1O[C@H](CO)[C@@H](O)[C@@]1(C)O | 300000 | – | – | – | – | –
19 | COC(=O)CNP(=O)(OC[C@H]1O[C@@H](n2cnc3c(N(C)NS(C)(=O)=O)ncnc32)[C@](C)(O)[C@@H]1O)Oc1ccccc1 (stereo not given in full) | 220000 | Stable | Stable | 0 | 0 | –
20 | CC(C)OC(=O)C(C)NP(=O)(OC[C@H]1O[C@@H](n2cnc3c(N(C)NS(C)(=O)=O)ncnc32)[C@](C)(O)[C@@H]1O)Oc1ccc(Cl)cc1 (stereo not given in full) | 2500 | Stable | Stable | 67 | 48 | –
